Molecules are shown by their SMILES.

The test deals with human fibroblasts. The test can be described thus: TMT proteomics of fibroblasts with and without UV exposure, differential expression and pathway analysis. The class given is cell-based. As to conditions: result in words. As for the experimental part: Human fibroblasts were obtained from Cell Applications Inc (Cat. # 106-05a) and were maintained in Dulbecco’s Modified Eagle medium (DMEM, Corning, Cat. #10-013-CV) with 10% fetal bovine serum (Gibco, Cat. #10082147) and 1% penicillin/streptomycin (Gibco, Cat. # 15070-063) in a humidified incubator with 5% CO2 at 37 °C. For ultraviolet radiation, fibroblasts were seeded in a 96-well plate at a density of 25,000 cells/well and maintained at 37 °C for 24 h. Cells were washed once with Hanks’ balanced salt solution (HBSS, Gibco, Cat. #14025-092), then treated for 1 h with different concentrations of compounds prepared in HBSS. Vitamin C (Sigma, Cat. # A5960) served as a positive control. Treated cells were exposed to ultraviolet light (UVP cross-linker, CL1000, 254 nm UV, 8 watts) at a total dose of 20 mJ/cm^2. Following irradiation, the HBSS was replaced with culture medium containing the same concentration of compounds as before irradiation, and cells were again maintained at 37 °C. Cell viability was measured at 24 h post-irradiation using CellTiter-Glo according to the manufacturer’s instructions (Promega, Cat.# G7571). Results were expressed as relative cell viability (%) with respect to control cells (cells without ultraviolet irradiation or compound treatment).
Frozen cell pellets were dissolved for 15 min in 6M Guanidinium Chloride at room temperature to lyse cells. Then, each solution was run on a 10 kDa filter (Pall, TX) and washed with 50 μL of TEAB buffer at 3000 rpm. FASP Digestion ([56]): A stock solution of Trypsin Platinum, Mass Spec Grade (Promega) at 100 μg/mL in 50 mM TEAB, and a specific volume of stock trypsin was added to each sample vial for each set of […] using a 1:50 ratio (Trypsin:Protein). Samples were incubated for 2 h at 50 °C and shaken/mixed at 350 rpm on an Eppendorf ThermoMixer C. TMT Labeling: Samples, now peptides, were labeled using 4 μL of TMTpro Mass Tag Labels (ThermoScientific). After labeling, samples were then shaken/mixed for 45 min to ensure labels were covalently bonded to peptides. The labeling reaction was quenched for 10 min using 1 μL of 5% hydroxyalamine. After quenching, samples were pooled into one 2 mL Eppendorf tube and then dried down using an Eppendorf Vacufuge Plus. Desalting Samples: Dried samples were resuspended in 300 μL of 0.1% TFA in ultrapure HPLC-grade water and vortexed to ensure full solubility. Samples were then desalted using Pierce^TM Peptide Desalting Spin Columns (ThermoScientific). Final eluates (desalted samples) contained 600 μL of 50% HPLC-grade Acetonitrile and 50% ultrapure HPLC-grade water. Desalted samples were then transferred to HPLC vials and were again dried down. […]

Turning to `O=c1c(O[C@@H]2O[C@H](CO)[C@@H](O)[C@H](O)[C@H]2O)c(-c2ccc(O)c(O)c2)oc2cc(O)cc(O)c12` [isoquercitrin], the “proteins/pathways up- and downregulated, exposed to UV radiation” value (UV-irradiated cells) is “upregulation of collagen and cell cycle/DNA repair proteins while downregulating proteins associated with autophagy, necroptosis, ferroptosis, lysosomal degradation, and other pathways”. Moreover, where the note is “control conditions without UV”, the “proteins/pathways up- and downregulated, without UV treatment” value was “upregulated proteins associated with DNA repair pathways and downregulated inflammatory pathways”.

These data come from PMC12439166, “Dietary flavonoids form supramolecular assemblies, alter biochemistry, and enhance cell resilience” (Frontiers in Nutrition, 2025).
